For data set [1] the following is noted: in vivo; cited from earlier work.
A further data set deals with Influenza A N1H1. Put plainly: In vivo antiviral efficacy in Balb/c mice, lung virus titer by TCID50 assay. As to the method: Mice received a daily MB-dose of 5 mg/kg based on a daily drinking volume of ˜5-6 ml and a body weight of 25-35 g. The control group received drinking water with saccharin but without methylene blue.
Mice were euthanized and lungs were removed on day 3 post challenge with influenza H1N1 virus. These tissue samples were stored at <−60° C. until they were transferred into homogenization tubes containing 1 ml cell medium supplemented with antibiotics. The lungs were homogenized two times at 5000 rpm for twenty seconds with 10 seconds pause between the intervals with a tissue homogenizer. The infectious H1N1 virus titer in homogenized lung samples was determined by a TCID50 assay performed by titration on Madin-Darby Canine Kidney (MDCK) cells as described above.

Consider `Cc1cc2nc3c(=O)[nH]c(=O)nc-3n(C[C@H](O)[C@H](O)[C@H](O)CO)c2cc1C` [riboflavin, 7,8-dimethyl-10-[(2S,3S,4R)-2,3,4,5-tetrahydroxypentyl]benzo[g]pteridine-2,4-dione], for which, in data set [1], the initial half-life is recorded as 1.4 h and the terminal half-life was 14 h.

As to `CN(C)c1ccc2nc3ccc(=[N+](C)C)cc-3sc2c1.[Cl-]` [methylene blue, [7-(dimethylamino)phenothiazin-3-ylidene]-dimethylazanium; chloride], the “viricidal efficacy, lung virus titer (TCID50 assay)” value with Influenza A N1H1 (prophylactic application, 5 mg/kg daily in drinking water from day 0, challenge day 10, lungs 3 days later) is listed as “significant viricidal efficacy”; in the data set with Influenza A N1H1 (therapeutic application, 5 mg/kg daily in drinking water from day 11, challenge day 10), “significant viricidal efficacy”.

Values taken from patent publication US20230226072A1 (priority 2020, published 2023).
